Test results taken from ChEMBL document CHEMBL1201862, “PubChem BioAssay data set” (2004).
Calls of active or inactive are those of the source. Rule as the data show it, for most assays here: actives have a measured IC50 and inactives only a lower limit.

Assays:
Assay type in all cases: functional
Protein RecA = target: T1, Protein RecA (Mycobacterium tuberculosis, UniProt P9WHJ3); test: Fluorescence Cell-Free Homogeneous Dose Retest to Identify Inhibitors of RecA-Intein Splicing Activity. [Related pubchem assays (depositor defined):AID2097, AID2223, AID489010, AID492950]
T1 sequence (P9WHJ3 whole entry): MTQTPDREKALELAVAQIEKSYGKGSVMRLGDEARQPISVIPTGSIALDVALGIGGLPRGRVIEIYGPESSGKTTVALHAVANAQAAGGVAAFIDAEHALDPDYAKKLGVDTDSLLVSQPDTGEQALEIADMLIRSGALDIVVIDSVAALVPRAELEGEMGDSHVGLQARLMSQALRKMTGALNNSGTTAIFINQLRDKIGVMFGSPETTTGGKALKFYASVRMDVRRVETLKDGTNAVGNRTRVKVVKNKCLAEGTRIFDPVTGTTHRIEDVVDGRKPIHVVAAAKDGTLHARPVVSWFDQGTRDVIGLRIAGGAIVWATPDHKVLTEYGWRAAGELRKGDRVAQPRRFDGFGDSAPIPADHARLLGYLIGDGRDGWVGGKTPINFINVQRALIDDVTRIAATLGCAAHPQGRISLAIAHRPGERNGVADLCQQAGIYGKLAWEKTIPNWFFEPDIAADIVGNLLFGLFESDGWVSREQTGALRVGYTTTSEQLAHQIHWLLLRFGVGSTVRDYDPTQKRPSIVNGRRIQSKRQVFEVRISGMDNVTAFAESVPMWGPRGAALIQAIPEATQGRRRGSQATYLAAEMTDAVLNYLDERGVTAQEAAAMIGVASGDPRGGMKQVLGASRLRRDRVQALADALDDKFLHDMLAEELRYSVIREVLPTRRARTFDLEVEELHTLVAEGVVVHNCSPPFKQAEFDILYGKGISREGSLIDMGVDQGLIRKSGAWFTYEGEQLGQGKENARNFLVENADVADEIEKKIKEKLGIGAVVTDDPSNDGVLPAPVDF

[1] = target: T2, Sentrin-specific protease 7 (Homo sapiens, UniProt Q9BQF6);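 also: Luminescence-based dose-response confirmation of ultra-high-throughput screening hits, measuring inhibition of SENP7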
T2 sequence (Q9BQF6 whole entry): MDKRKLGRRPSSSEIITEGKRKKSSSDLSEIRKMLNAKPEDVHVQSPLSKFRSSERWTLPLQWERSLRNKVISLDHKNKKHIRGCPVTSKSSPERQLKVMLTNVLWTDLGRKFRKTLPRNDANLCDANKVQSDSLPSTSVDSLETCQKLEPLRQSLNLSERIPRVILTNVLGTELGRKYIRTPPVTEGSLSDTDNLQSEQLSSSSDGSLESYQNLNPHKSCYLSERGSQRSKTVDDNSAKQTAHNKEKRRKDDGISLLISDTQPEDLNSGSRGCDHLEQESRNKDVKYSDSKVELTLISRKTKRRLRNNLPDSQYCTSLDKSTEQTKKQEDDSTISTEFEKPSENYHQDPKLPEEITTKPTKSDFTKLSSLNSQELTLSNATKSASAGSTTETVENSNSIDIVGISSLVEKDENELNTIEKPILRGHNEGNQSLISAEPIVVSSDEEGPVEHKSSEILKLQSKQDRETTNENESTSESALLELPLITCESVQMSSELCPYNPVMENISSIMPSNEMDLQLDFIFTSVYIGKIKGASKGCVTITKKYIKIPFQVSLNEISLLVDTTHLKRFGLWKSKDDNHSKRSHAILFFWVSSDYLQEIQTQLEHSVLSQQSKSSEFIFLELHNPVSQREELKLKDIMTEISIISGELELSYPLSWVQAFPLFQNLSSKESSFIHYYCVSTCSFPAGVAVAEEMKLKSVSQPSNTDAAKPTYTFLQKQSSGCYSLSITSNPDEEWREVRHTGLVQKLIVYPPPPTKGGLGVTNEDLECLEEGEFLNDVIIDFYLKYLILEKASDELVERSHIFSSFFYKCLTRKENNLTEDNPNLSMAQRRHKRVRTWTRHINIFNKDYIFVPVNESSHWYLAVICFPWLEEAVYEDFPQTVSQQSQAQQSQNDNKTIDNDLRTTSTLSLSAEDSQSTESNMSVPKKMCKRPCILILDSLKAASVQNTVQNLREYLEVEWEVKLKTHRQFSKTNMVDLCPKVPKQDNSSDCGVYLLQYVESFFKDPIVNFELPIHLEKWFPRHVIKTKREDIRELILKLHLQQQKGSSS

[2] = target: T3, Sentrin-specific protease 6 (Homo sapiens, UniProt Q9GZR1);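 also: Luminescence-based dose-response confirmatory assay of SENP6 inhibition, following up an ultra-high-throughput screen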
T3 sequence (Q9GZR1 whole entry): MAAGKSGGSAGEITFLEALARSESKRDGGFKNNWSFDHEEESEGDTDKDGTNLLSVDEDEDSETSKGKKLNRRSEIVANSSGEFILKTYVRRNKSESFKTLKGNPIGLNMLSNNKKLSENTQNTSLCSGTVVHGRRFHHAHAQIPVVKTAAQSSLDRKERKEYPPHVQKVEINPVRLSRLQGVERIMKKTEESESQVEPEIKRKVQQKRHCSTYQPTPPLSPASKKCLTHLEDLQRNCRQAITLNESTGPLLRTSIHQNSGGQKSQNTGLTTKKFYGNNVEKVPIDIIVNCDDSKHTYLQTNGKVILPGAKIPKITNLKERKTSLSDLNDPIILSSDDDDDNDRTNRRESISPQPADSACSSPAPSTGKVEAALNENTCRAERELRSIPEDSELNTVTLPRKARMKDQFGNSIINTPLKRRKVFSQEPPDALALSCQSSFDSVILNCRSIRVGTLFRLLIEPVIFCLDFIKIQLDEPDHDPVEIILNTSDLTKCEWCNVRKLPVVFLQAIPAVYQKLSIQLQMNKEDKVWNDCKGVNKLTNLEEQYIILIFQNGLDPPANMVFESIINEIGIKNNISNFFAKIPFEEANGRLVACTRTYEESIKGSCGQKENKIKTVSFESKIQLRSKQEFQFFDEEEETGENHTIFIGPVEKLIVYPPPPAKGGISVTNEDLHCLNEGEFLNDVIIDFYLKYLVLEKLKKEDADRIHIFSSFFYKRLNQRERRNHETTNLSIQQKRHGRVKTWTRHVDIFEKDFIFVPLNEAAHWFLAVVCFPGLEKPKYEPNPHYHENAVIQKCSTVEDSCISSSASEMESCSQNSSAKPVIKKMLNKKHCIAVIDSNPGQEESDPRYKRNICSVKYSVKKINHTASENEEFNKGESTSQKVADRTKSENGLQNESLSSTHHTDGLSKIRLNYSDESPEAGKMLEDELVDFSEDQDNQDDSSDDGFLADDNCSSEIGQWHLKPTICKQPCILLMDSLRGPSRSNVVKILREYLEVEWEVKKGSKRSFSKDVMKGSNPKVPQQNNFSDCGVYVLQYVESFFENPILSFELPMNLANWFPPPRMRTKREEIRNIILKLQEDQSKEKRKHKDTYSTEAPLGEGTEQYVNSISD

Which EC50 (Protein RecA) does the source give for COC(=O)C[C@]1(C(=O)OC)CN(C#N)N(c2ccc(Cl)cc2)C12c1ccccc1-c1ccccc12 here?
Its EC50 is 1.77 µM (active).

For O=C(Nc1ccc(C#Cc2ccccc2)cc1)C1CC1, which IC50 [1] is on record?
Its IC50 is 3.38 µM (active).

What about the IC50 [2] of the same molecule?
Its IC50 is > 100 µM (inactive).

Which IC50 [1] does the source give for CCCCn1c(NC(=O)c2ccco2)c(C(=O)OCC)c2nc3ccccc3nc21 here?
The IC50 was 10.1 µM (active).

And the IC50 [2]?
The IC50 was 3.25 µM (active).

For Cc1ccccc1NC1=C/C(=N\S(=O)(=O)c2ccc(C(=O)O)cc2)c2ccccc2C1=O, which EC50 (Protein RecA) is on record?
The EC50 was 3.67 µM (active).

Which IC50 [1] does the source give for Cc1ccc(NC2=C/C(=N/S(=O)(=O)c3cccs3)c3ccccc3C2=O)cc1 here?
The IC50 was 0.359 µM (active).

And the IC50 [2]?
Its IC50 is 0.186 µM (active).

What about the EC50 (Protein RecA) of the same molecule?
The EC50 was 0.119 µM (active).

For COc1ccc(-c2cc(-c3ccc(C)cc3)[nH]n2)c(O)c1, which IC50 [1] is on record?
Its IC50 is 6.63 µM (active).

And the IC50 [2]?
The IC50 was 19.7 µM (active).
